Laboratory results published in patent US20100034749A1, “Use of a Cationic Collodal Preparation for the Diagnosis and Treatment of Ocular Diseases” (MediGene AG, priority 2006, published 2010).

Test system: laser induced CNV model in mice
Assay: SLO imaging after i.v. application in laser induced CNV mouse model
Assay type: in vivo, C57/BI6 mice
Experimental: For animal experiments, the laser induced CNV model in mice was used as described by Tobe et al. (1998). In brief, C57/BI6 mice (8-12 weeks old) were anesthetized, pupils were dilated and 4-6 burns of 100 μm diameter were produced with a laser (100 mW, 100 μs). In 80-90% of the laser burns, CNV develops within about 14 days.
As read-out, Scanning Laser Opthalmoscopy (SLO), flat mount and histology are performed. 100 μl of the respective formulation was applied intravenously, immediately followed by SLO over a time course of about 120 min. Three different EndoTAG formulations are selected:
EndoTAG-A: DOTAP/DOPC/OG-DHPE=60/35/5 mol %, 10 mM total liposomal components in 10% trehalose (produced as described in Example 1). EndoTAG-B: DOTAP/DOPC/OG-DOPE=[…] mol %, 10 mM total liposomal components in 10% trehalose EndoTAG-C: DOTAP/DOPC/OG-DOPE/PEG-DOPE=60/30/5/5 mol %, 10 mM total liposomal components in 10% trehalose
As control, neutral liposomes (DOPC/OG-DOPE=95/5 mol %, 10 mM total lipid, in trehalose) is applied as well as an aqueous solution of Oregon Green (0.5 mM). Additional animals are used to carry out flat mounts and histology by sacrificing animals at the respective peak intensity as observed in SLO.

Oregon Green [free dye]
Accumulation at lesion site / neovascular sites (SLO after i.v. application): did not show an accumulation
Staining of the vasculature / neovasculature (after 60 min, equivalent concentrations): no increased staining of the vasculature
